# In patent publication US8192962B2, “Processes for detecting toxic substances” (Daikin Industries, Ltd., priority 2001, dated 2012):
# System: Energy system protein genes
# Assay: DNA chip mRNA expression in yeast, energy system protein genes (Table 4)
# Type: cell-based, Saccharomyces cerevisiae S288C
# Method in brief: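 Values are treated/untreated fluorescence ratios from a whole-genome yeast DNA chip hybridized over 12 hours at 65° C with Cy3- or Cy5-labelled cDNA from poly(A) mRNA. Log-phase S288C yeast in YPD at 25° C had received a single toxic chemical for two hours, dosed to slow growth without killing.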
substance,measurement,setting,value
manganese ethylenebis(dithiocarbamate) [(8)],The level of expressed mRNA in the presence of chemical substance/The level of expressed mRNA in the absence of chemical substance,yeast gene YAL060W,0.9
same,The level of expressed mRNA in the presence of chemical substance/The level of expressed mRNA in the absence of chemical substance,"yeast gene YBL058W, cells incubated two hours with the chemical substance",1.2
same,The level of expressed mRNA in the presence of chemical substance/The level of expressed mRNA in the absence of chemical substance,"yeast gene YBL099W, cells incubated two hours with the chemical substance",0.8
same,The level of expressed mRNA in the presence of chemical substance/The level of expressed mRNA in the absence of chemical substance,"yeast gene YBR001C, cells incubated two hours with the chemical substance",1.3
same,The level of expressed mRNA in the presence of chemical substance/The level of expressed mRNA in the absence of chemical substance,"yeast gene YBR185C, cells incubated two hours with the chemical substance",1.1
same,The level of expressed mRNA in the presence of chemical substance/The level of expressed mRNA in the absence of chemical substance,"yeast gene YBR221C, cells incubated two hours with the chemical substance",0.8
same,The level of expressed mRNA in the presence of chemical substance/The level of expressed mRNA in the absence of chemical substance,yeast gene YCL040W,0.7
same,The level of expressed mRNA in the presence of chemical substance/The level of expressed mRNA in the absence of chemical substance,yeast gene YCR012W,0.8
same,The level of expressed mRNA in the presence of chemical substance/The level of expressed mRNA in the absence of chemical substance,"yeast gene YCR046C, cells incubated two hours with the chemical substance",0.9
same,The level of expressed mRNA in the presence of chemical substance/The level of expressed mRNA in the absence of chemical substance,"yeast gene YCR105W, cells incubated two hours with the chemical substance",1.4
same,The level of expressed mRNA in the presence of chemical substance/The level of expressed mRNA in the absence of chemical substance,yeast gene YDL021W,2.7
same,The level of expressed mRNA in the presence of chemical substance/The level of expressed mRNA in the absence of chemical substance,"yeast gene YDL067C, cells incubated two hours with the chemical substance",1.1
same,The level of expressed mRNA in the presence of chemical substance/The level of expressed mRNA in the absence of chemical substance,"yeast gene YDL078C, cells incubated two hours with the chemical substance",1.0
same,The level of expressed mRNA in the presence of chemical substance/The level of expressed mRNA in the absence of chemical substance,"yeast gene YDL107W, cells incubated two hours with the chemical substance",1.8
same,The level of expressed mRNA in the presence of chemical substance/The level of expressed mRNA in the absence of chemical substance,yeast gene YDL174C,0.8
same,The level of expressed mRNA in the presence of chemical substance/The level of expressed mRNA in the absence of chemical substance,"yeast gene YDL181W, cells incubated two hours with the chemical substance",0.6
same,The level of expressed mRNA in the presence of chemical substance/The level of expressed mRNA in the absence of chemical substance,yeast gene YDR001C,0.9
same,The level of expressed mRNA in the presence of chemical substance/The level of expressed mRNA in the absence of chemical substance,"yeast gene YDR050C, cells incubated two hours with the chemical substance",1.3
same,The level of expressed mRNA in the presence of chemical substance/The level of expressed mRNA in the absence of chemical substance,"yeast gene YDR079W, cells incubated two hours with the chemical substance",2.6
same,The level of expressed mRNA in the presence of chemical substance/The level of expressed mRNA in the absence of chemical substance,"yeast gene YDR178W, cells incubated two hours with the chemical substance",0.9
same,The level of expressed mRNA in the presence of chemical substance/The level of expressed mRNA in the absence of chemical substance,yeast gene YDR231C,1.3
same,The level of expressed mRNA in the presence of chemical substance/The level of expressed mRNA in the absence of chemical substance,"yeast gene YDR298C, cells incubated two hours with the chemical substance",1.2
same,The level of expressed mRNA in the presence of chemical substance/The level of expressed mRNA in the absence of chemical substance,"yeast gene YDR377W, cells incubated two hours with the chemical substance",1.3
same,The level of expressed mRNA in the presence of chemical substance/The level of expressed mRNA in the absence of chemical substance,"yeast gene YDR529C, cells incubated two hours with the chemical substance",1.3
same,The level of expressed mRNA in the presence of chemical substance/The level of expressed mRNA in the absence of chemical substance,"yeast gene YEL024W, cells incubated two hours with the chemical substance",1.0
same,The level of expressed mRNA in the presence of chemical substance/The level of expressed mRNA in the absence of chemical substance,"yeast gene YEL039C, cells incubated two hours with the chemical substance",1.1
same,The level of expressed mRNA in the presence of chemical substance/The level of expressed mRNA in the absence of chemical substance,yeast gene YER178W,0.8
same,The level of expressed mRNA in the presence of chemical substance/The level of expressed mRNA in the absence of chemical substance,yeast gene YFL057C,18.0
same,The level of expressed mRNA in the presence of chemical substance/The level of expressed mRNA in the absence of chemical substance,yeast gene YFR053C,2.8
same,The level of expressed mRNA in the presence of chemical substance/The level of expressed mRNA in the absence of chemical substance,"yeast gene YGL018C, cells incubated two hours with the chemical substance",0.8
same,The level of expressed mRNA in the presence of chemical substance/The level of expressed mRNA in the absence of chemical substance,yeast gene YGL062W,0.8
same,The level of expressed mRNA in the presence of chemical substance/The level of expressed mRNA in the absence of chemical substance,"yeast gene YGL187C, cells incubated two hours with the chemical substance",0.7
same,The level of expressed mRNA in the presence of chemical substance/The level of expressed mRNA in the absence of chemical substance,"yeast gene YGL191W, cells incubated two hours with the chemical substance",1.6
same,The level of expressed mRNA in the presence of chemical substance/The level of expressed mRNA in the absence of chemical substance,"yeast gene YGL205W, cells incubated two hours with the chemical substance",1.2
same,The level of expressed mRNA in the presence of chemical substance/The level of expressed mRNA in the absence of chemical substance,"yeast gene YGL256W, cells incubated two hours with the chemical substance",1.0
same,The level of expressed mRNA in the presence of chemical substance/The level of expressed mRNA in the absence of chemical substance,yeast gene YGR043C,2.6
same,The level of expressed mRNA in the presence of chemical substance/The level of expressed mRNA in the absence of chemical substance,"yeast gene YGR062C, cells incubated two hours with the chemical substance, 25° C., YPD medium",0.8
same,The level of expressed mRNA in the presence of chemical substance/The level of expressed mRNA in the absence of chemical substance,"yeast gene YGR087C, cells incubated two hours with the chemical substance",0.8
same,The level of expressed mRNA in the presence of chemical substance/The level of expressed mRNA in the absence of chemical substance,"yeast gene YGR174C, cells incubated two hours with the chemical substance",1.6
same,The level of expressed mRNA in the presence of chemical substance/The level of expressed mRNA in the absence of chemical substance,yeast gene YGR192C,1.1
same,The level of expressed mRNA in the presence of chemical substance/The level of expressed mRNA in the absence of chemical substance,yeast gene YGR244C,1.8
same,The level of expressed mRNA in the presence of chemical substance/The level of expressed mRNA in the absence of chemical substance,yeast gene YGR254W,1.4
same,The level of expressed mRNA in the presence of chemical substance/The level of expressed mRNA in the absence of chemical substance,yeast gene YHR179W,3.3
same,The level of expressed mRNA in the presence of chemical substance/The level of expressed mRNA in the absence of chemical substance,yeast gene YIL160C,1.2
same,The level of expressed mRNA in the presence of chemical substance/The level of expressed mRNA in the absence of chemical substance,"yeast gene YIR031C, cells incubated two hours with the chemical substance",1.0
same,The level of expressed mRNA in the presence of chemical substance/The level of expressed mRNA in the absence of chemical substance,yeast gene YJL052W,1.5
same,The level of expressed mRNA in the presence of chemical substance/The level of expressed mRNA in the absence of chemical substance,"yeast gene YJL121C, cells incubated two hours with the chemical substance",1.0
same,The level of expressed mRNA in the presence of chemical substance/The level of expressed mRNA in the absence of chemical substance,"yeast gene YJL166W, cells incubated two hours with the chemical substance",1.4
same,The level of expressed mRNA in the presence of chemical substance/The level of expressed mRNA in the absence of chemical substance,"yeast gene YJL216C, cells incubated two hours with the chemical substance",1.9
same,The level of expressed mRNA in the presence of chemical substance/The level of expressed mRNA in the absence of chemical substance,yeast gene YJR009C,1.1
